The test system of assay [1] is Human immunodeficiency virus 1. The assay is classed as functional, organism-based. Particulars: NL4-3, HeLaP4.
For assay [2], the target named is D(1A) dopamine receptor (Homo sapiens) (UniProt P21728). Briefly: Inhibition of human dopamine D1 receptor at up to 10 uM.
The subject of assay [3] is Human immunodeficiency virus 1. Description: Antiviral activity against HIV1 NL4-3 harboring reverse transcriptase Y188C mutant infected in human HeLaP4 cells assessed as inhibition of viral replication after 5 days by beta-galactosidase reporter assay. The format is functional, organism-based.
Assay [4] has as its target 5-hydroxytryptamine receptor 2A (Homo sapiens) (UniProt P28223). Description: Inhibition of human 5-HT2A receptor at up to 10 uM.

Active and inactive are the calls of the source. The calls are words filed in the database; no cut-off is given here.

Sequence of D(1A) dopamine receptor (Homo sapiens) (P21728 whole entry): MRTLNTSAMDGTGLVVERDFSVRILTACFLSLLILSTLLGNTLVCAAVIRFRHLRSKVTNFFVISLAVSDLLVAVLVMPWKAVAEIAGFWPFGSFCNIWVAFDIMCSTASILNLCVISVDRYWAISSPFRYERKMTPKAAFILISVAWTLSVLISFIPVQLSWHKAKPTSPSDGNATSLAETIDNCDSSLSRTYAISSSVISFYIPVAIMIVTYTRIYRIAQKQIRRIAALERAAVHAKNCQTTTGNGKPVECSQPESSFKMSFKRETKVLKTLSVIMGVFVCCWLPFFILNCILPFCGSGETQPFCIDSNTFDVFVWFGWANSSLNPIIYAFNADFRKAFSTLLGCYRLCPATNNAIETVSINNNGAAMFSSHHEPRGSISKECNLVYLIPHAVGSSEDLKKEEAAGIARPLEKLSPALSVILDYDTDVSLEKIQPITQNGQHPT
Sequence of 5-hydroxytryptamine receptor 2A (Homo sapiens) (P28223 whole entry): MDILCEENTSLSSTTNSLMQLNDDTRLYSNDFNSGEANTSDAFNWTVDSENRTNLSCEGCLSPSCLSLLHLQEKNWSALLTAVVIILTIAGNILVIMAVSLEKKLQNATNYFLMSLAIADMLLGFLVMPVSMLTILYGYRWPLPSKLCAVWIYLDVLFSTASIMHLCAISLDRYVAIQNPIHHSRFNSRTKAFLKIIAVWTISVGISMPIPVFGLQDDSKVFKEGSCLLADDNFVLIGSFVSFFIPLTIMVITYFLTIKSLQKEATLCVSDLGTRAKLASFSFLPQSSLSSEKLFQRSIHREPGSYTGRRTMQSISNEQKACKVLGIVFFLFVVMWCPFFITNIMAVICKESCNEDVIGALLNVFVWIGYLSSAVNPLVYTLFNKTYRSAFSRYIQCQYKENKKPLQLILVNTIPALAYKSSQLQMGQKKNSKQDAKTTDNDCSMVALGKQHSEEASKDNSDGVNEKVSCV

In the case of `CCc1nn(CCO)c(CC)c1Oc1cc(C#N)cc(C#N)c1` [LERSIVIRINE], the inhibition result in assay [1] and in assay [3] was “Active” each time. Moreover, the inhibition entry in assay [2] and in assay [4] was “inactive” in each case.

Source of the values: ChEMBL document CHEMBL1687773 (Antimicrob Agents Chemother, 2010).
